Source: patent publication US20070087988A1, “Hematopoietic progenitor kinase 1 for modulation of an immune response” (New York University, priority 2005, published 2007)

Assays:
CD4+ T cells = test: Intracellular IL-2 staining of CD4+ T cells (FACS); assay type: cell-based, mouse
Description: Purified naïve wild type and HPK1^−/− splenocytes were expanded with 10 μg/ml ConA for three days with or without 10 nM PGE2. 10^6 cells were seeded onto a 96-well plate and cells were either left unstimulated or were stimulated with 1 μg/ml anti-CD3 and anti-CD28 for 6 hours in the presence of GolgiStop™ (BD Pharmingen). Cells were washed with buffer containing 0.1% saponin and 0.1% BSA followed by incubation with anti-IL-2-PE for 30 min. IL-2 levels were read by flow cytometry using FACSCalibur™.
RBC-lysed wild type and HPK1^−/− splenocytes were stimulated with or without 1 nM PGE2 and 2 μg/ml anti-CD3 plus 1 μg/ml anti-CD28 for 48 hours in the presence of GolgiStop™ (BD Pharmingen) for the last five hours of culture. For profiling experiments, RBC-lysed splenocytes were stimulated with anti-CD3 and anti-CD28 for 24 hours, and GolgiStop was added in the last five hours. Cells were then fixed with 2% paraformaldehyde followed by permeabilization with a buffer containing 0.1% saponin and 0.1% BSA and the different conjugated antibodies for 30 min. Cytokine levels were read by flow cytometry using FACSCalibur™ and analyzed using Flowjo software.

T cells = test: T cell proliferation on anti-CD3/anti-CD28 TCR crosslinking, 3H-thymidine; assay type: cell-based, mouse
Description: Naïve T cells (2×10^5) were seeded onto a 96-well plate and incubated with 1 μg/ml anti-CD3 and anti-CD28 or 10 μg/ml ConA for three days in the presence or absence of 100 pM PGE2 and then pulsed with 1 μCi/well ^3H thymidine (MP Biomedicals, Irvine, Calif.) for 18 hours before harvesting.
T cells were negatively selected using the Pan T cell isolation kit (Miltenyi Biotech Inc., Auburn, Calif.). […] 2×10^5 Naïve T cells were seeded on a 96-well plate and incubated with various dilutions of anti-CD3 and 1 μg/ml of anti-CD28 for 72 hours in the presence or absence of 1 nM PGE2 and then pulsed with 1 μCi/well ^3H thymidine (MP Biomedicals, Irvine, Calif.) for 18 hours before harvest.

tyrosine phosphorylation = test: Anti-phosphotyrosine immunoblotting of Jurkat lysates and HPK1 immunoprecipitates; assay type: cell-based, human; conditions: 10 pM PGE2
Description: Cells were lysed in a buffer containing 1% Nonidet P-40 (NP-40) and 50 mM Tris, pH 7.6, 150 mM NaCl, 1 mM […], 10 mM NaF, 10 mM sodium pyrophosphate, 10 μg/ml each of aprotinin and leupeptin, and 2 mM phenylmethylsulfonyl fluoride (PMSF). The lysates were pre-cleared with protein A-Sepharose™ and subsequently, proteins were immunoprecipitated with either 2 μg of anti-Crk antibody or an equal amount of normal rabbit Ig by incubation at 4° C. for two hours. The beads were washed with 0.1% NP-40 in immunoprecipitation wash buffer (150 mM NaCl, 20 mM HEPES, pH 7.4, 10% glycerol, 1 mM […], 5 mM NaF, and 10 μg/ml each of aprotinin and leupeptin), and the bead-bound proteins were separated by SDS-PAGE. The proteins were transferred to a polyvinylidene fluoride (PVDF) membrane, immunoblotted with the indicated antibodies and developed by the enhanced chemiluminescence (ECL) system (Amersham Corp., Arlington Heights, Ill.).
It has been reported that binding of PGE2 to its GPCR leads to rapid activation of HPK1 kinase activity (Sawasdikosol et al., 2003, Blood 101:3687). […] First, it was assessed whether PGE2 stimulation would induce general tyrosine phosphorylation in the Jurkat T cell line was examined. […]

murine HPK1 = test: IVK assay of HA-tagged murine HPK1 (wild type and mutants) transfected into Jurkat cells; assay type: cell-based, mouse; conditions: Jurkat transfectants
Source text: The pcDNA3 vector containing mouse cDNA encoding the HA-tagged wild type murine HPK1 and a proline-rich-deleted construct were constructed by Dr. F. Kiefer (Liu et al., 2000, J. Immunol. 165:1417). QuickChange™ mutagenesis system was used to alter the wild type HPK1 construct to encode the desired point mutations (Stratagene, La Jolla, Calif.). Mutated constructs were sequenced to verify the presence of the desired mutation and for the absence of PCR-generated mutations.
Jurkat T cells (1.5×10^7) were transfected as described in (Chang et al., 1998, Mol. Cell. Biol. 18:4986). Whole cell lysates derived from resting or stimulated transfectants were subjected to immunoprecipitations by the indicated antibodies, and were subjected to in vitro kinase reactions as described in (Kiefer et al., 1996, EMBO J. 15:7013 and (Sawasdikosol et al., 2003, Blood 101:3687). Anti-murine HPK1 #7 antibody was used to detect the ectopically expressed HPK wild type and mutant murine HPK1.
To assess the role of the proline-rich motifs in PGE2-induced HPK1 activation, cells were transfected with constructs that encoded either the HA-tagged wild type HPK1 or a mutant form in which the P1, P2, and P4 proline-rich motifs (HA-ΔP-HPK1) were deleted (FIG. 8A). Transfectants were left untreated, stimulated by 10 pM of PGE2, or stimulated by TCR crosslinking. The ectopically expressed HPK1 proteins were subjected to anti-HA immunoprecipitation and were subjected to IVK assay. […] This limits the possibility that adapter proteins play a role in this process.
To assess the importance of arginine 168, arginine 169 and serine 171 in PGE2-induced HPK1 activation, a panel of mutant HPK1 expression constructs that encode a point mutation at each of these amino acids was created. In these mutants, arginines were changed to lysines and serine was changed to alanine. These mutant HPK1 constructs were transfected into Jurkat cells and the ectopically expressed HA-tagged HPK1 were immunoprecipitated from resting or PGE2 stimulated cells.

[1] = Example 4, 10 nM PGE2, restimulated anti-CD3/anti-CD28
[2] = Example 4, 100 pM PGE2, three days

## CCCCC[C@H](O)/C=C/[C@H]1[C@H](O)CC(=O)[C@@H]1C/C=C\CCCC(=O)O [PGE2, prostaglandin E2]
CD4+ T cells; [1]
  CD4+ HPK1−/− cells still producing IL-2 after PGE2 addition: over 45%
  wild type cells producing IL-2 after PGE2 addition: less than 10%
CD4+ T cells; Example 7, 1 nM PGE2, 48 hours
  CD4+ HPK1−/− T cells still producing IL-2 after co-culture with PGE2: over 22%
  wild type cells producing IL-2 after co-culture with PGE2: < 5%
T cells; [2]
  inhibition of proliferation, HPK1−/− T cells, anti-CD3/anti-CD28: 18%
  inhibition of proliferation, wild type T cells, anti-CD3/anti-CD28: ~80%
T cells; Example 8, 1 nM PGE2, 72 hours
  inhibition of proliferation, HPK1−/− T cells, TCR cross-linking: ~20%
  inhibition of proliferation, wild type T cells, TCR cross-linking: ~80%
Tyrosine phosphorylation; Jurkat whole cell lysates
  global tyrosine phosphorylation level: no detectable change
Tyrosine phosphorylation; immunoprecipitated HPK1, Jurkat
  tyrosine phosphorylation of HPK1: did not induce detectable tyrosine phosphorylation
Murine HPK1; 10 pM PGE2
  kinase response of HA-HPK1 (wild type): responded competently
  kinase response of HPK1 proline-rich deleted mutant (HA-ΔP-HPK1): responded to PGE2 stimulation
Murine HPK1; PGE2 stimulated
  kinase response of HPK1 serine 171 to alanine mutant to PGE2: ablated the response
  reduction of responsiveness to PGE2 stimulation, HPK1 arginine to lysine mutation at residue 168 or 169: approximately 90%
